One data set is described as follows: physchem. The procedure: For solubilization studies, the calculated amount of Paclitaxel was add to the block polymers aqueous solution (prepared according to Example 5) and stirred for 10-20 minute at room temperature or 4° C.
A short description of data set [1]: Stability of paclitaxel in copolymer solution or gel. In kind it is physicochemical.
For data set [2] the following is noted: cited from earlier work.

Bounds are passed on as bounds.

By solubility is commonly meant how much of the substance goes into solution per volume.

On to `CC(=O)O[C@H]1C(=O)[C@@]2(C)[C@H]([C@H](OC(=O)c3ccccc3)[C@]3(O)C[C@H](OC(=O)[C@H](O)[C@@H](NC(=O)c4ccccc4)c4ccccc4)C(C)=C1C3(C)C)[C@]1(OC(C)=O)CO[C@@H]1C[C@@H]2O` [paclitaxel], for which the “increase in solubility of paclitaxel” value in “physchem” is listed as about 3000 fold. Besides, the solubility in “physchem” (aqueous with cosolvent or surfactant or cyclodextrin, thermodynamic from solid) was at most 12 mg/mL. For the same compound, the paclitaxel intact in data set [1] (23% by weight aqueous triblock copolymer solutions or gels, after 30 days in storage (2 to 8° C. and 37° C.)) was over 90%. Also, in data set [1] (aqueous cosolvent solution, in less than one week at 37° C.), the paclitaxel degraded is on record as over 50%. Also, in data set [2], the solubility in water result is “approximately 4 μg/ml”.

Values taken from patent US9155722B2, “Reconstitutable reverse thermal gelling polymers” (PROTHERICS SALT LAKE CITY, INC., priority 2009, dated 2015).
